Results published in patent publication US8546343B2, “Aminoglycoside antibiotics targeting bacterial 16S ribosomal RNA” (Eidgenoessische Technische Hochschule Zurich, priority 2007, dated 2013).
In brackets after ≈: the same amount, converted by molar mass.

What was measured:
AG016 S. aureus BM3002 = experiment: Standard MIC assay, AG016; format: cell-based, Staphylococcus aureus; conditions: Staphylococcus aureus, read-out: Minimal inhibitory concentrations AG016
Outline: (§1)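 Bacteria, including strains with defined resistance determinants, are exposed to the compound in vitro; the minimal concentration inhibiting growth is recorded as MIC.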

[1] = test system: AG004 E. coli clinical isolate; experiment: Standard MIC assay, AG004; format: cell-based, Escherichia coli; conditions: Escherichia coli, read-out: Minimal inhibitory concentrations AG004
Experimental: (§2) Selected compounds of the present invention were tested for antibiotic susceptibility using clinical isolates of Staphylococci, Enterococci and Escherichia coli as well as strains carrying defined resistance determinants and compared to well known antibiotics of the state of the art. Drug susceptibility was determined in standard MIC assays, i.e. by determination of the minimal drug concentration required to inhibit bacterial growth in vitro.

AG017 E. faecalis JH2-2 = experiment: Standard MIC assay, AG017; format: cell-based, Enterococcus faecalis; conditions: Enterococcus faecalis, read-out: Minimal inhibitory concentrations AG017
Outline: as §1

[2] = test system: AG013 Staph. epi. clinical isolate; experiment: Standard MIC assay, AG013; format: cell-based, Staphylococcus epidermidis; conditions: Staphylococcus epidermidis, read-out: Minimal inhibitory concentrations AG013
Outline: as §1

[3] = test system: M. smegmatis ΔrrnB (bacterial ribosomes); experiment: MIC, recombinant M. smegmatis with bacterial (wild-type) ribosomes; format: cell-based, Mycobacterium smegmatis; conditions: 72 h at 37° C.
Outline: (§3)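 M. smegmatis single-rRNA-operon strain carrying the indicated 16S rRNA decoding-site alleles, introduced into the chromosomal operon and confirmed by sequencing. Colony-purified cultures were grown in LB with 0.05% Tween 80 and started at OD600 0.025. MIC was read in microtiter format against twofold drug dilutions.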

[4] = test system: AG015 S. aureus BM3002 (ANT4′); experiment: Standard MIC assay, AG015; format: cell-based, Staphylococcus aureus; conditions: Staphylococcus aureus, read-out: Minimal inhibitory concentrations AG015
Outline: as §1

[5] = test system: AG008 E. coli BM13 (ANT2″); experiment: Standard MIC assay, AG008; format: cell-based, Escherichia coli; conditions: Escherichia coli, read-out: Minimal inhibitory concentrations AG008
Experimental: as §2

[6] = test system: AG007 E. coli BM13 (AAC3); experiment: Standard MIC assay, AG007; format: cell-based, Escherichia coli; conditions: Escherichia coli, read-out: Minimal inhibitory concentrations AG007
Experimental: as §2

[7] = test system: M. smegmatis ΔrrnB 1491C (16S rRNA position 1491 C, eukaryotic mitochondrial ribosome); experiment: MIC, recombinant M. smegmatis with mutant ribosomes 1491C; format: cell-based, Mycobacterium smegmatis; conditions: M. smegmatis ΔrrnB 1491C mutant ribosomes; 72 h at 37° C.
Outline: as §3

[8] = test system: AG003 E. coli clinical isolate; experiment: Standard MIC assay, AG003; format: cell-based, Escherichia coli; conditions: Escherichia coli, read-out: Minimal inhibitory concentrations AG003
Experimental: as §2

[9] = test system: AG019 E. faecalis JH2-2 (APH2″ AAC6′); experiment: Standard MIC assay, AG019; format: cell-based, Enterococcus faecalis; conditions: Enterococcus faecalis, read-out: Minimal inhibitory concentrations AG019
Outline: as §1

[10] = test system: AG001 E. coli clinical isolate; experiment: Standard MIC assay, AG001; format: cell-based, Escherichia coli; conditions: Escherichia coli, read-out: Minimal inhibitory concentrations AG001
Experimental: as §2

[11] = test system: AG009 E. coli BM13 AAC(6′)-1B; experiment: Standard MIC assay, AG009; format: cell-based, Escherichia coli; conditions: Escherichia coli, read-out: Minimal inhibitory concentrations AG009
Experimental: as §2

[12] = test system: AG011 Staph. aureus clinical isolate; experiment: Standard MIC assay, AG011; format: cell-based, Staphylococcus aureus; conditions: Staphylococcus aureus, read-out: Minimal inhibitory concentrations AG011
Outline: as §1

[13] = test system: M. smegmatis ΔrrnB 1491A (16S rRNA position 1491 A, eukaryotic cytosolic ribosomes); experiment: MIC, recombinant M. smegmatis with mutant ribosomes 1491A; format: cell-based, Mycobacterium smegmatis; conditions: M. smegmatis ΔrrnB 1491A mutant ribosomes; 72 h at 37° C.
Outline: as §3

AG006 E. coli BM13 = experiment: Standard MIC assay, AG006; format: cell-based, Escherichia coli; conditions: Escherichia coli, read-out: Minimal inhibitory concentrations AG006
Experimental: as §2

[14] = test system: AG002 E. coli clinical isolate; experiment: Standard MIC assay, AG002; format: cell-based, Escherichia coli; conditions: Escherichia coli, read-out: Minimal inhibitory concentrations AG002
Experimental: as §2

[15] = test system: M. smegmatis ΔrrnB 1408G (16S rRNA position 1408 G, eukaryotic cytosolic ribosomes); experiment: MIC, recombinant M. smegmatis with mutant ribosomes 1408G; format: cell-based, Mycobacterium smegmatis; conditions: M. smegmatis ΔrrnB 1408G mutant ribosomes; 72 h at 37° C.
Outline: as §3

[16] = test system: AG014 Staph. epi. clinical isolate; experiment: Standard MIC assay, AG014; format: cell-based, Staphylococcus epidermidis; conditions: Staphylococcus epidermidis, read-out: Minimal inhibitory concentrations AG014
Outline: as §1

Compound `NCC1OC(OC2C(CO)OC(OC3C(O)C(N)CC(N)C3OC3OC(CO)C(OCc4ccccc4)C(O)C3N)C2O)C(N)C(O)C1O` (stereo not shown) [Compound 11, 4′-O-Benzylparomomycin] has an MIC (AG016 S. aureus BM3002) of 16 to 32 µg/mL (≈ 22.7 to 45.3 µM), an MIC [1] of 64 µg/mL (≈ 90.7 µM) and an MIC (AG017 E. faecalis JH2-2) of 32 to 64 µg/mL (≈ 45.3 to 90.7 µM). For the same compound, the MIC [2] was 16 µg/mL (≈ 22.7 µM), the “minimal inhibitory concentrations ΔrrnB” value [3] was 4 µg/mL and the MIC [4] was 32 µg/mL (≈ 45.3 µM). For the same compound, the MIC [5] was 64 to 128 µg/mL (≈ 90.7 to 181 µM), the MIC [6] was 32 µg/mL (≈ 45.3 µM) and the “minimal inhibitory concentrations ΔrrnB 1491C” value [7] was greater than 512 µg/mL. The MIC [8] was 32 to 64 µg/mL (≈ 45.3 to 90.7 µM), the MIC [9] was greater than 256 µg/mL and the MIC [10] was 64 µg/mL (≈ 90.7 µM). The MIC [11] was 64 to 128 µg/mL (≈ 90.7 to 181 µM), the MIC [12] was 8 µg/mL (≈ 11.3 µM) and the “minimal inhibitory concentrations ΔrrnB 1491A” value [13] was “≧512 μg/ml”. For the same compound, the MIC (AG006 E. coli BM13) was 32 µg/mL (≈ 45.3 µM), the MIC [14] was 32 to 64 µg/mL (≈ 45.3 to 90.7 µM) and the “minimal inhibitory concentrations ΔrrnB 1408G” value [15] was greater than 512 µg/mL. It also gave an MIC [16] of 8 µg/mL (≈ 11.3 µM).
